Data from patent US10245262B2, “Immunological reagents and uses therefor” (THE UNIVERSITY OF QUEENSLAND, priority 2014, dated 2019).
Read-outs that look alike come from different tables or passages of the source.

How the values were obtained:
human MR1 = target: T1, human MR1 (Homo sapiens, UniProt Q95460, C283S); test: Refolding of MR1 and β2m with ligand; type: binding
T1 construct: Soluble human MR1 a.a; made in house

C1R.MR1 cells = test: Detection of MR1 expression on C1R.MR1 cells (mAb 26.5 staining); type: cell-based; conditions: for MR1 upregulation compared to 5-A-RU added by itself: compound added with 5-A-RU to C1R.MR1 cells
Method: (§1) Jurkat cells transduced with genes encoding a MAIT TCR comprising the TRAV1-2-TRAJ33 invariant α chain, and a TRBV6-1 β chain, or SKW cells transduced with genes encoding the TRAV1-2-TRAJ33 invariant α chain with either w.t. Tyr95 or mutated Tyr95Ala or Tyr95Phe residues, paired with a TRBV6-1 β chain, were tested for activation by co-incubation with bacterial culture supernatant or compounds and C1R antigen presenting cells expressing MR1 (CIR.MR1, with Jurkat.MAIT cells), or C1R cells (SKW.MAIT cells) for 16 hr. Cells were subsequently stained with PE-Cy7-conjugated anti-CD3 (eBioscience), and APC-conjugated anti-CD69 (BD) antibodies as well as biotinylated anti-MR1 mAb 26.5 (Huang S. et al (2005)), followed by Streptavidin-PE (BD), before analysis by flow cytometry. Activation of Jurkat.MAIT or SKW.MAIT cells was measured by an increase in surface CD69 expression. MR1 expression was detected on gated C1R.MR1 cells in the same assay.

SKW.MAIT cells = test: Activation of wild-type, Y95A or Y95F mutant SKW.MAIT cells with C1R cells; type: cell-based; conditions: compound added to C1R cells
From the text: FIG. 4 is a graph showing MR1-Ag tetramers and MAIT activation. […] (c) EICs of m/z 315.09, or m/z 317.10. (d) (i) Activation assay and (ii) MR1 upregulation with 5-A-RU, methylglyoxal (MG), butane-2,3-dione (BD), glyoxal (G), or rRL-6-CH2OH. MFI of 26.5-PE antibody staining (e) (i) CD69 upregulation and (ii) MR1 upregulation with 5-A-RU, MG, BD, or G. MFI of 26.5-PE. (f) Activation of wild-type, Y95A, or Y95F mutant SKW.MAIT cells by 5-A-RU. Mean of triplicates with SEM. Experiments were performed at least twice (b, c, f) or 3 times (a, d, e).
as §1, with “Cells were subsequently stained with PE-Cy7-conjugated anti-CD3 (eBioscience), and APC-conjugated anti-CD69 (BD) antibodies as well as biotinylated anti-MR1 mAb 26.5 (Huang S. et al (2005)), followed by Streptavidin-PE (BD), before analysis by flow cytometry.” left out

Jurkat.MAIT cells = test: Activation of Jurkat.MAIT cells (CD69 upregulation) co-incubated with C1R.MR1 cells; type: cell-based; conditions: for Jurkat.MAIT activation compared to 5-A-RU added by itself: compound added with 5-A-RU to C1R.MR1 cells
Method: as §1

MR1 [1] = test: Crystal structure of MAIT TCR-MR1-Ag complexes; type: binding, human
Method: Crystals of the soluble MAIT TCR-MR1-Ag complexes were obtained using the hanging drop vapour diffusion method. The MR1-2M-5-OP-RU, MR1-2M-5-OE-RU, MR1, MR1-K43A-2M-5-OP-RU and MAIT TCR were concentrated to 4 mg/ml, mixed in a 1:1 molar ratio, then […] of a precipitant solution consisting 0.1 M bis-tris propane pH 6.3, 0.2 M sodium acetate and varying concentrations of PEG 3350 between 8-14% w/v. Crystals were observed after incubation at 20° C. for 24 hours in dark conditions and cryoprotected prior to diffraction experiments by soaking in the crystallisation condition modified with between 10-15% v/v glycerol before cooling to 100K. Diffraction images were collected at the Australian Synchrotron MX2 beamline diffracting in a C2 spacegroup to 2.50 Å, 2.10 Å and 2.20 Å for the MR1-2M-5-OP-RU, MR1-2M-5-OE-RU, and MR1-K43A-2M-5-OP-RU complexes with the MAIT TCR respectively. The data were processed using Mosflm version 7.0.9 and scaled using AIMLESS or SCALA (MR1-K43A-2M-5-OP-RU only) from the CCP4 Suite. The phase problem was solved by molecular replacement using PHASER (McCoy A. J. (2007)), using MR1 ternary complex (PDB code 4L4T) (Patel O. et al (2013)) with CDR loops and ligands removed and using the Rfree reflection set from the model. […]

[2] = for half-life: buffer
Method: FIG. 7 is a graph showing stability of 5-OP-RU (a) Reaction between 5-A-RU (0.5 mM) and methylglyoxal (3 eq) at pH 6.8, 37° C. in MilliQ water. RL-6-Me represents 6-methyl-8-D-ribityllumazine. (b) Stability of purified 5-OP-RU (65 μM) at pH 6.8 and 37° C. […] (c) Stability of purified 5-OP-RU (65 μM) at variable pH in aqueous TBS buffer (10 mM Tris, 150 mM NaCl, pH 8.0), MilliQ water (pH 6.8), or ammonium acetate buffer (20 mM, pH 5.4) at 15° C.
The purified 5-OP-RU was dissolved in aqueous TBS buffer (10 mM Tris, 150 mM NaCl, pH 8.0), MilliQ water (pH 6.8), or aqueous ammonium acetate buffer (20 mM, pH 5.4). The consumption of 5-OP-RU was immediately monitored by LCMS. The initial concentration was quantified by comparing to a standard solution of known concentration.

MAIT cells = test: MAIT cell accumulation in lungs after intranasal S. Typhimurium infection; type: in vivo, mice; conditions: with BR509ΔribDH (10^7) i.n.; 200 μl of 1.52 μM i.v. at d1, d3, d5; day 7 post infection
MR1 [3] = conditions: cited from earlier work
[4] = compound added alone to C1R.MR1 cells

T1 sequence (Q95460 with tags, fused parts or gaps C283S): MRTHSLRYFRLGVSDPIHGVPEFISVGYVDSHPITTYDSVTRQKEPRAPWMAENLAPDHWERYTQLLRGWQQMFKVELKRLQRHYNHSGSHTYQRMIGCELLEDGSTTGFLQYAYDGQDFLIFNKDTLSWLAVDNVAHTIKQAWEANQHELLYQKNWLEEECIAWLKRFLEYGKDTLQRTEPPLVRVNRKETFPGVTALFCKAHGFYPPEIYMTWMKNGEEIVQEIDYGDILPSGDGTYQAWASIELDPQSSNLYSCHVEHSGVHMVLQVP
T1 sequence (P61769 21-119 partner): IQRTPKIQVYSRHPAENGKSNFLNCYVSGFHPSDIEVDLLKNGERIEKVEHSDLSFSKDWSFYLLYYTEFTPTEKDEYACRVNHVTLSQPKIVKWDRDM

Nc1c(NC[C@H](O)[C@H](O)[C@H](O)CO)[nH]c(=O)[nH]c1=O [5-A-RU, 5-amino-6-D-ribitylaminouracil]
MR1-ligand complex on refolding MR1 with the compound alone (human MR1): undetectable | MR1 cell surface upregulation (C1R.MR1 cells; [4]): MR1 cell surface upregulation | recognition by SKW.MAIT cells with Tyr95α mutated to Ala95 or Phe95 (SKW.MAIT cells): ablated recognition | activation of Jurkat.MAIT cells (Jurkat.MAIT cells; [4]): activation of Jurkat.MAIT cells

O=CC=Nc1c(NC[C@H](O)[C@H](O)[C@H](O)CO)[nH]c(=O)[nH]c1=O [5-OE-RU, 5-(2-oxoethylideneamino)-6-D-ribitylaminouracil]
binding mode in the MR1 cleft (MR1 [1]): formed a Schiff base with Lys43 of MR1 | stability (in words) [2]: relatively unstable

CC(=O)C=Nc1c(NC[C@H](O)[C@H](O)[C@H](O)CO)[nH]c(=O)[nH]c1=O [5-OP-RU, 5-(2-oxopropylideneamino)-6-D-ribitylaminouracil]
binding mode in the MR1 cleft (MR1 [1]): formed a Schiff base with Lys43 of MR1 | half-life ([2]; pH 5.4): 49 min | half-life ([2]; pH 6.8): around 2 h | accumulation of MAIT cells in lungs (MAIT cells): accumulation is observed

Cc1nc2c(=O)[nH]c(=O)nc-2n(C[C@H](O)[C@H](O)[C@H](O)CO)c1O [RL-6-Me-7-OH, 7-hydroxy-6-methyl-8-D-ribityllumazine]
binding mode in the MR1 cleft (MR1 [3]): non-covalently bound within MR1

CC(=O)C(C)=O [butane-2,3-dione]
MR1-Ag complex on refolding MR1 in the presence of 5-A-RU and the compound (human MR1): failed to yield any MR1-Ag complexes | MR1 upregulation compared to 5-A-RU added by itself (C1R.MR1 cells): not enhanced | Jurkat.MAIT activation compared to 5-A-RU added by itself (Jurkat.MAIT cells): nor was there an increase in Jurkat.MAIT activation

O=CC=O [glyoxal]
MR1-Ag complex on refolding MR1 in the presence of 5-A-RU and the compound (human MR1): led to a correctly folded MR1-Ag complex | MR1 upregulation compared to 5-A-RU added by itself (C1R.MR1 cells): further increase in MR1 upregulation | Jurkat.MAIT activation compared to 5-A-RU added by itself (Jurkat.MAIT cells): increase in Jurkat.MAIT activation

CC(=O)C=O [methylglyoxal]
MR1-Ag complex on refolding MR1 in the presence of 5-A-RU and the compound (human MR1): led to a correctly folded MR1-Ag complex | MR1 upregulation compared to 5-A-RU added by itself (C1R.MR1 cells): further increase in MR1 upregulation | Jurkat.MAIT activation compared to 5-A-RU added by itself (Jurkat.MAIT cells): increase in Jurkat.MAIT activation

Cc1cc2nc3c(=O)[nH]c(=O)nc-3n(C[C@H](O)[C@H](O)[C@H](O)CO)c2cc1C [riboflavin]
effect of riboflavin added during culture of NZ9000 on MAIT cell activation by the supernatant (Jurkat.MAIT cells; L. lactis NZ9000 supernatant, 3 μg/ml riboflavin): inhibited MAIT cell activation

reduced 6-hydroxymethyl-8-D-ribityllumazine [rRL-6-CH2OH]
recognition by SKW.MAIT cells with Tyr95α mutated to Ala95 or Phe95 (SKW.MAIT cells): ablated recognition
